Assay results taken from patent US20090099343A1 (priority 2005, published 2009).

Legend:
[1] = test system: PrP^Sc
[2] = test system: PrP^Sc; remark: listed apart in the source
[3] = test system: PrP^Sc; settings: for binding to PrP^Sc compared among peptide reagents: pH 4
[4] = target: PrP^Sc (Mus musculus, UniProt P04925)
PrP^Sc (Mus musculus, UniProt P04925), sequence (P04925 23-230 limits assumed): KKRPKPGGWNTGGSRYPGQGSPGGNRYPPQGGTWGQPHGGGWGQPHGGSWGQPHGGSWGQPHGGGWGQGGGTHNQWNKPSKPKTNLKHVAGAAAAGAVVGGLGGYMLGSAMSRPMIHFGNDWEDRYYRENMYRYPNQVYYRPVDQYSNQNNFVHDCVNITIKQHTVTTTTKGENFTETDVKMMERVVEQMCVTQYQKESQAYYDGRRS

Substance | pH of optimal binding to PrP^Sc [3] | binding to PrP^Sc compared among peptide reagents [3] | also measured
(GGG)KKRPKPGGWNTGG [SEQ ID NO:67] |  |  | PrP^Sc eluted from peptide reagent [1]: eluted all; PrP^Sc dissociated from peptide reagent [2]: virtually all
(GGG)KKKKKKKK [SEQ ID NO:85] | 8 | bound equally well | 
GGGQWNKPSK*KTN, wherein * is N-(cyclopropylmethyl)glycine [SEQ ID NO:111] |  |  | PrP^Sc dissociated from peptide reagent with NaCl [2]: little was dissociated; tightness of PrP^Sc binding to peptide reagent [2]: bound most tightly
(GGG)KKRPKPGG [SEQ ID NO:68] | 8 | bound equally well | binding to PrP^Sc in infected mouse brain homogenate (FIG. 4, lane 5) [4]: strong binding
(GGG)QWNKPSKPKTN [SEQ ID NO:14] | 8 | bound equally well | 
